The values that follow come from PMC5768729, “A partially-open inward-facing intermediate conformation of LeuT is associated with Na^+ release and substrate transport” (Nature Communications, 2018).

pEC50: −log10 of the molar value.

What is called pEC50 is the EC50 on a negative log10 scale, so that one unit is a factor of ten.

In assay [1] the test system is LeuT. In words: Scintillation proximity assay, time course of 3H-substrate binding to LeuT with or without Na+ pre-incubation. As to conditions: 3H-Leu 100 nM or 3H-Ala 500 nM, LeuT wild type. More on the design: species or system Aquifex aeolicus. On the procedure:
We bound ^3H-leucine (140 Ci mmol^–1; Moravek) to purified LeuT-variants using the scintillation proximity assay (SPA) as described[17],[18] with 25 ng of purified protein per assay in buffer composed of 50 mM Tris/Mes (pH 8.0), 100 mM NaCl, 1 mM TCEP, 20% glycerol and 1 mM DDM.
Supplementary Figure 5. Pre-incubation of LeuT with Na+ modulates substrate binding.
The time course of binding of (a,c,d) 3H-Leu (100 nM) or (b) 3H-Ala (500 nM) to LeuT wild type (WT; a,b) or LeuT-L400S (c) or -F253A (d) in the absence (open black squares) or presence (filled red circles) of Na+ was measured using the scintillation proximity assay4 (see Methods). Data are shown as mean ± s.e.m. of three technical replicates of a representative experiment performed in parallel (experiments with individual mutants were repeated ≥ 2) and normalized with regard to the steady state level of LeuT-WT. […]
(SPA uses beads or plates that emit light when radiolabelled molecules are held near them.)

In assay [2] the test system is LeuT. Briefly: smFRET imaging of extracellular-labeled LeuT (K239C/H480C), FRET state occupancy and dynamics. The assay is classed as biochemical, Aquifex aeolicus. As to conditions: no substrate.
Protocol: Fluorescence experiments were performed using a prism-based total internal reflection fluorescence (TIRF) microscope as previously described[15],[16]. Microfluidic imaging chambers passivated with a mixture of PEG and biotin-PEG were prepared with 0.8 µM streptavidin (Invitrogen) and 4 nM biotin-tris-(NTA-Ni^2+)[46]. Fluorophore labeled, His-tagged LeuT molecules were reversibly immobilized to the surface-associated Ni^2+ atoms. LD550 (Cy3) fluorophores were excited by the evanescent wave generated by total internal reflection (TIR) of a 532 nm diode-pumped solid state laser (Opus, Laser Quantum). […] Fluorescence data were acquired using custom software implemented in LabView (National Instruments) at 10 frames per second (100 ms time resolution). […]
(§1) Analysis of single-molecule fluorescence data was performed using custom software written in MATLAB (MathWorks)[22]. […] FRET traces were calculated as EFRET=IA∕(IA+ID) , where IA and ID are the donor and acceptor fluorescence traces, and set to zero whenever the donor was in the dark state. […] SNRSignal (12:1 on average) is the signal magnitude relative to noise within the fluorescence trace prior to photobleaching, which includes all noise sources, including photon statistics and photophysical noise, in addition to background noise. […]
The test system of assay [3] is LeuT. In words: smFRET imaging of intracellular-labeled LeuT (H7C/R86C), FRET state occupancy and dynamics. The assay is classed as biochemical, Aquifex aeolicus.
Protocol: Fluorescence experiments were performed using a prism-based total internal reflection fluorescence (TIRF) microscope as previously described[15],[16]. Microfluidic imaging chambers passivated with a mixture of PEG and biotin-PEG were prepared with 0.8 µM streptavidin (Invitrogen) and 4 nM biotin-tris-(NTA-Ni^2+)[46]. Fluorophore labeled, His-tagged LeuT molecules were reversibly immobilized to the surface-associated Ni^2+ atoms. LD550 (Cy3) fluorophores were excited by the evanescent wave generated by total internal reflection (TIR) of a 532 nm diode-pumped solid state laser (Opus, Laser Quantum). Photons emitted from LD550 (Cy3) and LD650 (Cy5) were collected using a 1.27 NA 60 × PlanApo water-immersion objective (Nikon) and a MultiCam-LS device (Cairn) with a T635lpxr-UF2 dichroic mirror (Chroma) to separate the spectral channels onto two synchronized sCMOS cameras (Flash 4.0 v2, Hamamatsu). Fluorescence data were acquired using custom software implemented in LabView (National Instruments) at 10 frames per second (100 ms time resolution).
Unless otherwise specified, all experiments were performed at 25 °C in buffer containing 50 mM Tris/Mes (pH 7.0), 10% glycerol, 1 mM DDM (Anatrace), 1 mM 2-mercaptoethanol and 200 mM total salt (KCl and NaCl, as specified). An oxygen-scavenging environment consisting of 0.2 units per ml purified glucose oxidase (Sigma G2133), 1.8 units per μl purified catalase (Sigma C40), 0.1% (v/v) glucose was used in all experiments to minimize photobleaching.
as §1

Consider `CC(C)C[C@H](N)C(=O)O` [Leu, leucine], for which the “Effect of pre-incubating LeuT with Na+ on the rate of substrate binding” value in the assay with LeuT [1] is listed as “dramatically slowed”.
On the same count and under the same terms, the entry for `C[C@H](N)C(=O)O` [Ala, alanine] is “no such delay in binding”.
Turning to `[Li+]` [Li^+], the “EC50 for inducing high-FRET state stabilization, fold higher than for Na+” value in the assay on LeuT [2] (extracellular side) was “seven-fold higher”. Besides, the pEC50 in the assay on LeuT [3] (LiCl titration in the presence of 250 μM Ala, Hill coefficient fixed at 2.0, read-out: EC50 of dose-response fit of intracellular high-FRET state occupancy) was 1.00; in the assay with LeuT [3] (LiCl titration in the presence of 250 μM Ala, Hill coefficient fixed at 2.0, read-out: EC50 of dose-response fit of intracellular intermediate-FRET state occupancy), 1.17.
With `[Na+]` [Na^+, sodium], the pEC50 is 1.26 in the assay on LeuT [2] (Na+ titration, Hill coefficient fixed at 2.0, read-out: EC50 of dose-response fit of extracellular FRET state occupancy); 1.70 to 2.10 with LeuT [3] (NaCl titration in the presence of 250 μM Ala, read-out: EC50 values of dose-response fits of intracellular low-, intermediate- and high-FRET state occupancies).
